Among the data in patent publication US9840501B2, “Morpholin-pyridine derivatives” (Hoffmann-La Roche Inc., priority 2014, dated 2017) are Ki values, retold here.

The target in one test is mouse TAAR1 (Mus musculus (Mouse), UniProt Q923Y8). In words: Radioligand binding assay on mouse TAAR1. The settings on record: mouse TAAR1, membranes of stably transfected HEK-293 cells; first value of the pair; read-out: Ki (μM) mouse/rat: mouse. The protocol:
(§1) For the construction of expression plasmids the coding sequences of human, rat and mouse TAAR 1 were amplified from genomic DNA essentially as described by Lindemann et al.. The Expand High Fidelity PCR System (Roche Diagnostics) was used with 1.5 mM Mg^2+ and purified PCR products were cloned into pCR2.1-TOPO cloning vector (Invitrogen) following the instructions of the manufacturer. PCR products were subcloned into the pIRESneo2 vector (BD Clontech, Palo Alto, Calif.), and expression vectors were sequence verified before introduction in cell lines.
(§2) For the generation of stably transfected cell lines HEK293 cells were transfected with the pIRESneo2 expression plasmids containing the TAAR coding sequences (described above) with Lipofectamine 2000 (Invitrogen) according to the instructions of the manufacturer, and 24 hrs post transfection the culture medium was supplemented with 1 mg/ml G418 (Sigma, Buchs, Switzerland). After a culture period of about 10 d clones were isolated, expanded and tested for responsiveness to trace amines (all compounds purchased from Sigma) with the cAMP Biotrak Enzyme immunoassay (EIA) System (Amersham) following the non-acetylation EIA procedure provided by the manufacturer.
Radioligand Binding Assay on Mouse TAAR1
(§3) Membrane Preparation and Radioligand Binding.
(§4) Cells were released from culture flasks using trypsin/EDTA, harvested, washed twice with ice-cold PBS (without Ca^2+ and Mg^2+), pelleted at 1,000 rpm for 5 min at 4° C., frozen and stored at −80° C. Frozen pellets were suspended in 20 ml HEPES-NaOH (20 mM, pH 7.4) containing 10 mM EDTA and homogenized with a Polytron (PT 6000, Kinematica) at 14′000 rpm for 20 s. The homogenate was centrifuged at 48,000×g for 30 min at 4° C. Subsequently, the supernatant was removed and discarded, and the pellet resuspended in 20 ml HEPES-NaOH (20 mM, pH 7.4) containing 0.1 mM EDTA using the Polytron (20 s at 14′000 rpm). This procedure was repeated and the final pellet resuspended in HEPES-NaOH containing 0.1 mM EDTA and homogenized using the Polytron. Typically, aliquots of 2 ml membrane portions were stored at −80° C. With each new membrane batch the dissociation constant (Kd) was determined via a saturation curve. […] Nonspecific binding was defined as the amount of ^3[H]—(S)-4-[(ethyl-phenyl-amino)-methyl]-4,5-dihydro-oxazol-2-ylamine bound in the presence of 10 μM unlabeled ligand. All compounds were tested at a broad range of concentrations (10 pM to 10 μM) in duplicates. […] The 96 deep well plates were incubated for 1 hr at 4° C. Incubations were terminated by rapid filtration through Unifilter-96 plates (Packard Instrument Company) and glass filters GF/C (Perkin Elmer) presoaked for 1 hr in polyethylenimine (0.3%) and washed 3 times with 1 ml of cold binding buffer. After addition of 45 μl of Microscint 40 (PerkinElmer) the Unifilter-96 plate was sealed and after 1 hr the radioactivity counted using a TopCount Microplate Scintillation Counter (Packard Instrument Company).

A further test has as its target rat TAAR1 (Rattus norvegicus (Rat), UniProt Q923Y9). In words: Radioligand binding assay on rat TAAR1. The settings on record: rat TAAR1, membranes of stably transfected HEK-293 cells; second value of the pair; read-out: Ki (μM) mouse/rat: rat. The protocol: as §1, §2
Radioligand Binding Assay on Rat TAAR1
as §3
as §4, with “1′000” for “1,000”, “48′000×g” for “48,000×g”

Chain of rat TAAR1 (Q923Y9 whole entry): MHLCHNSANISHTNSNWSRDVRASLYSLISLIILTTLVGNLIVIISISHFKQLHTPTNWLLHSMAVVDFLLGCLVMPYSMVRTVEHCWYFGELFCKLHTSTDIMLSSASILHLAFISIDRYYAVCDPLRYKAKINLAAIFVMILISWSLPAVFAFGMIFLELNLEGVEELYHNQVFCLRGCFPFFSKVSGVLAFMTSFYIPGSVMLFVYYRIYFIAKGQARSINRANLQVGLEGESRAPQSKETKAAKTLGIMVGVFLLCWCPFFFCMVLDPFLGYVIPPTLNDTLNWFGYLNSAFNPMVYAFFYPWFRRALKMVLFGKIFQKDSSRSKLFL
Chain of mouse TAAR1 (Q923Y8 whole entry): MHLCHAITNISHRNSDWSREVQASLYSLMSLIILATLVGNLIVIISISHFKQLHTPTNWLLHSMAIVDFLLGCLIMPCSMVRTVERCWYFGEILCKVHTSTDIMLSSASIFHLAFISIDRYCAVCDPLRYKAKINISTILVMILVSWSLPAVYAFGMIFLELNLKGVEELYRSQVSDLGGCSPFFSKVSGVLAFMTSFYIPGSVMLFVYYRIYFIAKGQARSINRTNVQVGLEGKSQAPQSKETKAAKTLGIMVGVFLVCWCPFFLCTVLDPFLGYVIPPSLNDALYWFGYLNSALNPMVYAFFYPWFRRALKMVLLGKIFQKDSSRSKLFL

With `O=C(Nc1ccc([C@H]2CNCCO2)nc1)c1[nH]nc(C(F)(F)F)c1Cl` [Example 63, 4-Chloro-N-[6-[(2R)-morpholin-2-yl]-3-pyridyl]-3-(trifluoromethyl)-1H-pyrazole-5-carboxamide], the Ki at mouse TAAR1 was determined as 0.0495 µM; on rat TAAR1, 0.0613 µM.

As to `CCc1n[nH]c(C(=O)Nc2ccc([C@@H]3CNCCO3)nc2)c1Cl` [Example 76, 4-Chloro-3-ethyl-N-[6-[(2S)-morpholin-2-yl]-3-pyridyl]-1H-pyrazole-5-carboxamide], the Ki was determined as 0.0063 µM at mouse TAAR1 and 0.0384 µM at rat TAAR1.

For `O=C(Nc1ccc(C2CNCCO2)nc1)c1[nH]nc(OCC(F)(F)F)c1Cl` (racemic) [Example 75, (RS)-4-Chloro-N-(6-morpholin-2-yl-3-pyridyl)-3-(2,2,2-trifluoroethoxy)-1H-pyrazole-5-carboxamide], the Ki at rat TAAR1 was 0.0133 µM.

Regarding `CCc1n[nH]c(C(=O)Nc2ccc([C@H]3CNCCO3)nc2)c1Cl` [Example 82, 4-Chloro-3-ethyl-N-[6-[(2R)-morpholin-2-yl]-3-pyridyl]-1H-pyrazole-5-carboxamide], the results for the Ki on mouse TAAR1 and at rat TAAR1 were 0.0039 µM and 0.0925 µM, respectively.

As for `CCCc1n[nH]c(C(=O)Nc2ccc([C@@H]3CNCCO3)nc2)c1Cl` [Example 39, 4-Chloro-N-[6-[(2S)-morpholin-2-yl]-3-pyridyl]-3-propyl-1H-pyrazole-5-carboxamide], the Ki on mouse TAAR1 stood at 0.007 µM; on rat TAAR1 it was 0.0146 µM.

On to `FC(F)(F)c1ccc(Nc2ccc([C@H]3CNCCO3)nc2)cn1` [Example 27, 6-[(2R)-Morpholin-2-yl]-N-[6-(trifluoromethyl)-3-pyridyl]pyridin-3-amine], for which the Ki at mouse TAAR1 was found to be 0.074 µM; on rat TAAR1, 1.1 µM.

In the case of `CCc1n[nH]c(C(=O)Nc2ccc([C@H]3CNCCO3)nc2)c1C` [Example 66, (R)-3-Ethyl-4-methyl-N-(6-(morpholin-2-yl)pyridin-3-yl)-1H-pyrazole-5-carboxamide], the Ki was determined as 0.0113 µM at mouse TAAR1 and 0.0534 µM on rat TAAR1.

For the compound `CC(C)Cc1cc(C(=O)Nc2ccc([C@H]3CNCCO3)nc2)[nH]n1` [Example 94, 3-Isobutyl-N-[6-[(2R)-morpholin-2-yl]-3-pyridyl]-1H-pyrazole-5-carboxamide], the Ki was 0.0216 µM on mouse TAAR1 and 0.107 µM on rat TAAR1.

`CCCc1c(Cl)c(C(=O)Nc2ccc([C@@H]3CNCCO3)nc2)nn1C` [Example 46, 4-Chloro-1-methyl-N-[6-[(2S)-morpholin-2-yl]-3-pyridyl]-5-propyl-pyrazole-3-carboxamide]: the Ki was found to be 0.0188 µM on mouse TAAR1 and 0.651 µM at rat TAAR1.

Take `Clc1ccc(Nc2ccc([C@@H]3CNCCO3)nc2)cc1` [Example 18, N-(4-Chlorophenyl)-6-[(2S)-morpholin-2-yl]pyridin-3-amine]: the Ki amounted to 0.0015 µM on mouse TAAR1 and 0.043 µM at rat TAAR1.

In the case of `O=C(Nc1cccc(Cl)c1)Nc1cnc(C2CNCCO2)c(Cl)c1` (racemic) [Example 109, (RS)-1-(5-Chloro-6-morpholin-2-yl-3-pyridyl)-3-(3-chlorophenyl)urea], the Ki on mouse TAAR1 stood at 0.0543 µM; at rat TAAR1 it was 0.019 µM.

For `FC(F)(F)c1ccnc(Nc2ccc([C@H]3CNCCO3)nc2)c1` [Example 28, 6-[(2R)-Morpholin-2-yl]-N-[4-(trifluoromethyl)-2-pyridyl]pyridin-3-amine], the values for the Ki on mouse TAAR1 and on rat TAAR1 were 0.11 µM and 0.606 µM, respectively.

As to `CCOc1n[nH]c(C(=O)Nc2ccc([C@H]3CNCCO3)nc2)c1Cl` [Example 100, 4-Chloro-3-ethoxy-N-[6-[(2R)-morpholin-2-yl]-3-pyridyl]-1H-pyrazole-5-carboxamide], the Ki on rat TAAR1 was 0.123 µM.

With `O=C(Nc1ccc([C@@H]2CNCCO2)nc1)c1cccc(Cl)c1` [Example 32, 3-Chloro-N-[6-[(2S)-morpholin-2-yl]-3-pyridyl]benzamide], the Ki at rat TAAR1 was 0.0338 µM.

For `O=C(Nc1ccc([C@H]2CNCCO2)nc1)c1cccc(Cl)c1` [Example 52, 3-Chloro-N-[6-[(2R)-morpholin-2-yl]-3-pyridyl]benzamide], the Ki on rat TAAR1 stood at 0.0922 µM.

As for `O=C(Nc1ccc(C2CNCCO2)nc1)c1ccnc(C(F)(F)F)c1` (racemic) [Example 16, (RS)—N-(6-Morpholin-2-yl-3-pyridyl)-2-(trifluoromethyl)pyridine-4-carboxamide], on rat TAAR1, the Ki came out at 0.145 µM.

Regarding `CCOc1n[nH]c(C(=O)Nc2ccc([C@@H]3CNCCO3)nc2)c1Cl` [Example 106, 4-Chloro-3-ethoxy-N-[6-[(2S)-morpholin-2-yl]-3-pyridyl]-1H-pyrazole-5-carboxamide], the Ki at rat TAAR1 was 0.137 µM.

With `O=C(Nc1ccc([C@H]2CNCCO2)nc1)c1[nH]nc(OCC(F)(F)F)c1Cl` [Example 101, 4-Chloro-N-[6-[(2R)-morpholin-2-yl]-3-pyridyl]-3-(2,2,2-trifluoroethoxy)-1H-pyrazole-5-carboxamide], the Ki at rat TAAR1 was determined as 0.0225 µM.

For `O=C(Nc1ccc([C@H]2CNCCO2)nc1)c1ccnc(C(F)(F)F)c1` [Example 54, N-[6-[(2R)-Morpholin-2-yl]-3-pyridyl]-2-(trifluoromethyl)pyridine-4-carboxamide], the Ki at rat TAAR1 is 0.283 µM.

As to `FC(F)(F)c1ccc(Nc2cnc(C3CNCCO3)c(Cl)c2)nc1` (racemic) [Example 103, (RS)-5-Chloro-6-morpholin-2-yl-N-[5-(trifluoromethyl)-2-pyridyl]pyridin-3-amine], the Ki at rat TAAR1 was determined as 0.122 µM.

Turning to `CCCc1n[nH]c(C(=O)Nc2cnc(C3CNCCO3)c(Cl)c2)c1Cl` (racemic) [Example 108, (RS)-4-Chloro-N-(5-chloro-6-morpholin-2-yl-3-pyridyl)-3-propyl-1H-pyrazole-5-carboxamide], the Ki on mouse TAAR1 is 0.0241 µM.

As to `O=C(Nc1ccc(C2CNCCO2)nc1)c1cccc(Cl)c1` (racemic) [Example 12, (RS)-3-Chloro-N-(6-morpholin-2-yl-3-pyridyl)benzamide], the Ki at rat TAAR1 amounted to 0.0889 µM.

On to `Fc1cc(Nc2ccc(Cl)cn2)cnc1C1CNCCO1` (racemic) [Example 110, (RS)—N-(5-Chloro-2-pyridyl)-5-fluoro-6-morpholin-2-yl-pyridin-3-amine], for which, at rat TAAR1, the Ki was determined as 1.1 µM.

On to `CCOc1n[nH]c(C(=O)Nc2ccc(C3CNCCO3)nc2)c1Cl` (racemic) [Example 74, (RS)-4-Chloro-3-ethoxy-N-(6-morpholin-2-yl-3-pyridyl)-1H-pyrazole-5-carboxamide], for which, at rat TAAR1, the Ki was determined as 0.066 µM.

Regarding `O=C(Nc1ccc([C@@H]2CNCCO2)nc1)c1ccnc(C(F)(F)F)c1` [Example 34, N-[6-[(2S)-Morpholin-2-yl]-3-pyridyl]-2-(trifluoromethyl)pyridine-4-carboxamide], the Ki on rat TAAR1 came out at 0.147 µM.

Turning to `O=C(Nc1ccc([C@@H]2CNCCO2)nc1)c1[nH]nc(OCC(F)(F)F)c1Cl` [Example 105, 4-Chloro-N-[6-[(2S)-morpholin-2-yl]-3-pyridyl]-3-(2,2,2-trifluoroethoxy)-1H-pyrazole-5-carboxamide], the Ki on rat TAAR1 was 0.0176 µM.
